Values of other authors in patent US20260232685A1, “TRANSDERMAL PERMEATION ENHANCING COMPOSITION AND APPLICATION THEREOF IN TIMOLOL PREPARATION” (WUHAN CONFORM PHARMACEUTICAL CO., LTD., priority 2019, published 2026).

Conditions: absorbed by the gastrointestinal tract; J. Pharm. Pharmacol., 1978, 30, 53

Hepatic first-pass effect and metabolism at other sites, share of the total dose: about 34%
SMILES: CC(C)(C)NC[C@H](O)COc1nsnc1N1CCOCC1 [timolol]
